Reference: ChEMBL document CHEMBL6127119 (J Med Chem, 2024)
≈ marks a conversion by molar mass, not a printed value. Calls of active or inactive are those of the source. No cut-off for these calls is given here.

Assays:
Enterococcus faecium [1] = assay: Antibacterial activity against vancomycin-resistant Enterococcus faecium harboring VanM phenotype incubated for 16 to 24 hrs by CLSI based broth microdilution method; format: functional; conditions: time 16-24 hrs
Enterococcus faecium [2] = assay: Antibacterial activity against vancomycin-resistant Enterococcus faecium harboring VanB phenotype incubated for 16 to 24 hrs by CLSI based broth microdilution method; format: functional; conditions: time 16-24 hrs
Staphylococcus aureus [3] = assay: Potency index, ratio of Vancomycin MIC to test compound MIC for vancomycin-intermediate Staphylococcus aureus incubated for 16 to 24 hrs by CLSI based broth microdilution method; format: functional; conditions: time 16-24 hrs
Staphylococcus aureus [4] = assay: Potency index, ratio of Norvancomycin MIC to test compound MIC for vancomycin-intermediate Staphylococcus aureus incubated for 16 to 24 hrs by CLSI based broth microdilution method; format: functional; conditions: time 16-24 hrs
Acinetobacter baumannii = assay: Potency index, ratio of Norvancomycin MIC to test compound MIC for Carbapenem-resistant Acinetobacter baumannii clinical isolate incubated for 16 to 24 hrs by CLSI based broth microdilution method; format: functional; conditions: time 16-24 hrs
Enterococcus faecalis = assay: Antibacterial activity against Enterococcus faecalis clinical isolate incubated for 16 to 24 hrs by CLSI based broth microdilution method; format: functional; conditions: time 16-24 hrs
Enterococcus faecium [5] = assay: Antibacterial activity against vancomycin-resistant Enterococcus faecium harboring VanA phenotype clinical isolate incubated for 16 to 24 hrs by CLSI based broth microdilution method; format: functional; conditions: time 16-24 hrs
[6] = Hemolytic activity in rat RBC upto 100 ug/ml incubated for 1 hr by absorbance based assay; format: toxicity, cell-based; conditions: erythrocyte, dose < 100 µg/ml
Staphylococcus aureus [7] = assay: Bactericidal activity against methicillin-resistant Staphylococcus aureus MRSA252 assessed as reduction in bacterial count at 4 to 8 times MIC measured after 24 hrs by time kill assay; format: functional
Staphylococcus aureus [8] = assay: Bacteriostatic activity against methicillin-resistant Staphylococcus aureus MRSA252 at MIC measured after 24 hrs by time kill assay; format: functional, organism-based
Escherichia coli [9] = assay: Bactericidal activity against Escherichia coli AB1157 assessed as reduction in bacterial count at 8 times MIC measured after 24 hrs by time kill assay; format: functional
[10] = AUClast in CD-1 mouse at 10 mg/kg, iv measured for 24 hrs by UPLC analysis; format: ADME, organism-based; conditions: in vivo
[11] = Toxicity in BALB/c mouse infected with methicillin-resistant Staphylococcus aureus MRSA252 assessed as survival rate at 10 to 20 mg/kg, iv for 7 days; format: organism-based; conditions: in vivo, 168 h, dose 10-20 mg/kg, time 7 day
Staphylococcus aureus [12] = assay: Antibacterial activity against Staphylococcus aureus Mu50 assessed as fold decrease in MIC at 1:1 ratio of compound and Ac2KAA at […] incubated for 16 to 24 hrs by absorbance based assay relative to control; format: functional; conditions: dose 128 µg/ml; time 16-24 hrs
Escherichia coli [13] = assay: Induction of inner membrane permeabilization in Escherichia coli AB1157 measured for 50 mins by PI staining based analysis; format: functional, organism-based; conditions: dose 1-128 µg/ml
Staphylococcus aureus [14] = assay: Induction of membrane disruption in Staphylococcus aureus MRSA252 assessed as leakage of protoplasm content at 1 to 8 ug/ml incubated for 4 to 24 hrs by SEM analysis; format: functional, organism-based; conditions: dose 1-8 µg/ml, time 4-24 hrs
Staphylococcus aureus [15] = assay: Inhibition of peptidoglycan biosynthesis in Staphylococcus aureus MRSA252 assessed as increase in accumulation of Park's nucleotide at 0.5 ug/ml incubated for 2 hrs by RP-HPLC analysis; format: functional, organism-based; conditions: dose 0.5 µg/ml
Escherichia coli [16] = assay: Inhibition of peptidoglycan biosynthesis in Escherichia coli AB1157 assessed as increase in accumulation of Park's nucleotide at 16 ug/ml incubated for 2 hrs by RP-HPLC analysis; format: functional, organism-based; conditions: dose 16.0 µg/ml
Peptidoglycan [17] = assay: Binding affinity to Ac-Lys(Gly5)-D-Ala-D-Ala lipid II model peptide moiety assessed as association constant by ITC analysis
Peptidoglycan [18] = assay: Binding affinity to Ac-Lys(D-isoAsp)-D-Ala-D-Ala lipid II model peptide moiety assessed as association constant by ITC analysis
Peptidoglycan [19] = assay: Potency index, ratio of vancomycin Ka to test compound Ka for Ac-Lys(D-isoAsp)-D-Ala-D-Ala lipid II model peptide moiety
Peptidoglycan [20] = assay: Potency index, ratio of vancomycin Ka to test compound Ka for Ac-Lys(D-isoAsp)-D-Ala-D-Ala lipid II model peptide moiety assessed as association constant by ITC analysis
Peptidoglycan [21] = assay: Binding affinity to Ac-Lys(D-isoAsp)-D-Ala-D-Ala lipid II model peptide moiety assessed as change in Gibb's free energy by ITC analysis
Staphylococcus aureus [22] = assay: Post-antibiotic effect in Staphylococcus aureus MRSA252 at 10 times measured after 7 hrs; format: functional, organism-based
Staphylococcus aureus [23] = assay: Post-antibiotic effect in Staphylococcus aureus MRSA252 assessed as decrease in bacterial titer at 20 times measured after 7 hrs; format: functional
Staphylococcus aureus [24] = assay: Post-antibiotic effect in Staphylococcus aureus MRSA252 assessed as time of effect at 10 times; format: functional

Work on CC(C)C[C@@H](N)C(=O)N[C@H]1C(=O)N[C@@H](CC(N)=O)C(=O)N[C@H]2C(=O)N[C@H]3C(=O)N[C@H](C(=O)N[C@H](C(=O)NCc4ccc(-c5ccc(CNC(=N)N)cc5)cc4)c4cc(O)cc(O)c4-c4cc3ccc4O)[C@H](O)c3ccc(c(Cl)c3)Oc3cc2cc(c3O[C@@H]2O[C@H](CO)[C@@H](O)[C@H](O)[C@H]2O[C@H]2C[C@](C)(N)[C@H](O)[C@H](C)O2)Oc2ccc(cc2Cl)[C@H]1O yielded an MIC (Enterococcus faecium [1]) of 4 µg/mL (≈ 2.39 µM), an MIC (Enterococcus faecium [2]) of 2 µg/mL (≈ 1.2 µM) and a Ratio (Staphylococcus aureus [3]) of 2. The Ratio (Staphylococcus aureus [4]) was 2, the Ratio (Acinetobacter baumannii) was 2 and the MIC (Enterococcus faecalis) was ≤ 0.03 µg/mL. The MIC (Enterococcus faecium [5]) was 2 µg/mL (≈ 1.2 µM), the Activity [6] was “Non-Toxic” and the Activity (Staphylococcus aureus [7]) was ~1 log10CFU/ml. The Activity (Staphylococcus aureus [8]) was “Active”, the Activity (Escherichia coli [9]) was 3 log10CFU/ml and the AUC(0-t) at 24 h [10] was 28400 ng·h/mL. For the same compound, the Activity [11] was 100%, the “fold change (FC)” value (Staphylococcus aureus [12]) was 2 and the Activity (Escherichia coli [13]) was “Dose-Dependent Effect”. For the same compound, the Activity (Staphylococcus aureus [14]) was “Active”, the Activity (Staphylococcus aureus [15]) was “Active” and the Activity (Escherichia coli [16]) was “Active”. It also gave a Ka (Peptidoglycan [17]) of 2.32e+06 M⁻¹, a Ka (Peptidoglycan [18]) of 687000 M⁻¹ and a Ratio (Peptidoglycan [19]) of 2.7. The Ratio (Peptidoglycan [20]) was 17.3, the deltaG (Peptidoglycan [21]) was -7.96 kcal/mol and the Activity (Staphylococcus aureus [22]) was “Active”. For the same compound, the Activity (Staphylococcus aureus [23]) was 1.2 log10CFU/ml and the Time (Staphylococcus aureus [24]) was 6 h.
